# Experimental data reported in patent publication US20250163119A1, “COMPOUNDS FOR THE TREATMENT OF DIABETES OR OBESITY” (Eli Lilly and Company, priority 2023, published 2025).
# Where “and” joins values, the source holds several entries; their conditions need not be identical. Identical values can stand only once. Like-named read-outs stand apart in the source and are kept apart here. *1 amine or outer side, *2 acyl side, *3 side chain or, on linkers, in order; H or OH if unused. Where a SMILES comes first, the peptide text is derived from it. Where no end group is shown, it is not given here. Side-chain parts run from the residue outwards. [ ]: non-standard residue; d: D form. The star is where a group is joined. C20 diacid = O=C(O)CCCCCCCCCCCCCCCCCCC(=O)*; γGlu = O=C(O)[C@H](CCC(=O)[*:2])N[*:1]; εLys = N[C@@H](CCCCN[*:1])C(=O)[*:2]; NMeI = CC[C@H](C)[C@H](NC)C(=O)O; pGlu = O=C1CC[C@@H](C(=O)O)N1; αMeL = CC(C)C[C@](C)(N)C(=O)O; AEEA = NCCOCCOCC(=O)O; Aib = CC(C)(N)C(=O)O
# T1: human CRHR2 (Homo sapiens, UniProt Q13324)
# T1 construct: expressed in transfected cells
# T1 sequence (Q13324 1-438 isoform Q13324-2): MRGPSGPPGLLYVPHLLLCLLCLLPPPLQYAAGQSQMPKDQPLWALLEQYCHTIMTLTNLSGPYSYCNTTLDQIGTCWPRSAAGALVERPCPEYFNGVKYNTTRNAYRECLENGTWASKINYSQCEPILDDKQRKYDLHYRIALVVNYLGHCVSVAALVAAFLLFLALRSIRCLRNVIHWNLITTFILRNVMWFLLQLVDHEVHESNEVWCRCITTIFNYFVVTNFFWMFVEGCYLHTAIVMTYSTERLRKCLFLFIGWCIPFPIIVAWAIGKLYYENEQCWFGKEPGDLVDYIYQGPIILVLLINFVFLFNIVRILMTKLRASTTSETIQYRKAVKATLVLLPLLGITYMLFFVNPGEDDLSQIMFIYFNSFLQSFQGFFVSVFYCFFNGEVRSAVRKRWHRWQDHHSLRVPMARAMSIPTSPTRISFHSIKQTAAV
# T2: human CRHR1 (Homo sapiens, UniProt P34998)
# T2 construct: expressed in transfected cells
# T2 sequence (P34998 24-415): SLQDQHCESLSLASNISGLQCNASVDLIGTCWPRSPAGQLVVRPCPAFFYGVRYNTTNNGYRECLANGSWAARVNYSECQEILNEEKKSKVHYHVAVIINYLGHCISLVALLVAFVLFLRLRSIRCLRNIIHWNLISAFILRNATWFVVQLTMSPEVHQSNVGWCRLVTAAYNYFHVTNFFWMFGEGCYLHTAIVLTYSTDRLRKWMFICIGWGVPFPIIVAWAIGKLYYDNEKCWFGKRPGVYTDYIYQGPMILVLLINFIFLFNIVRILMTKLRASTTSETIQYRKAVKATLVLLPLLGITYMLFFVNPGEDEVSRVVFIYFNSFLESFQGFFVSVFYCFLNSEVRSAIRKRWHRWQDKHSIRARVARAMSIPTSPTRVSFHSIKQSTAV
# T3: human corticotropin-releasing hormone receptor 1 (CRHR1) (human, UniProt P34998 24-415)
# T3 sequence (looked up): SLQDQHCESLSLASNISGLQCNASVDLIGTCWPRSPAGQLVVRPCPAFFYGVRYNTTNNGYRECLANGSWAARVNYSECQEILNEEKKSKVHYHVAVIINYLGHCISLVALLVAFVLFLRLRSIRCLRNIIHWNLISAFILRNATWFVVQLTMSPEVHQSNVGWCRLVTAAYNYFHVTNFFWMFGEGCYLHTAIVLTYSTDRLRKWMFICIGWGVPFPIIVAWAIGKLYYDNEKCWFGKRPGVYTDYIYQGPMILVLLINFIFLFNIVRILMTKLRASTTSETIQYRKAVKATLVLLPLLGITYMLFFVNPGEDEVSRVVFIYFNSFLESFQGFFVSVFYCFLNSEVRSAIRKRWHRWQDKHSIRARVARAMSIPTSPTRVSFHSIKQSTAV
# Assays:
# human CRHR2 = target: T1, human CRHR2; assay: Human CRHR2 cAMP assay (HTRF) in HEK293 cells stably expressing human CRHR2; format: cell-based; conditions: HEK293 cells overexpressing human CRHR2; relative EC50, maximum 10 nM human UCN2; mean ± SE; read-out: hCRHR2 cAMP EC50 (pM, ± SE)
# How it was run: (§1)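 Gs-coupled receptor activation was followed as intracellular cAMP in stably transfected HEK293 cells, 25,000 (CRHR1) or 5,000 (CRHR2) per well, with 0.25 mM IBMX present. Stimulation lasted 1 h at 37° C for CRHR1 and 30 min at room temperature for CRHR2.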
# [1] = Pharmacokinetics in Sprague Dawley rats, single subcutaneous or intravenous dose (incl. 10, 30, 100 nmol/kg dose response); format: in vivo
# human CRHR1 = target: T2, human CRHR1; assay: Human CRHR1 cAMP assay (HTRF) in HEK293 cells stably expressing human CRHR1; format: cell-based; conditions: HEK293 cells overexpressing human CRHR1; relative EC50, maximum 66 nM human UCN1; mean ± SE; read-out: hCRHR1 cAMP EC50 (pM, ± SE)
# How it was run: as §1
# [2] = system: MHC-II presented peptides on human dendritic cells; assay: MAPPS assay (MHC-Associated Peptide Proteomics); format: cell-based
# Protocol: MAPPS profiles the MHC-II presented peptides on human dendritic cells treated with tested molecules. CD14+ cells, isolated from the PBMCs of normal human donors, were cultured and differentiated into immature DCs by incubation with IL-4 and GM-CSF. On day 4, culture media was replaced with fresh media containing tested molecules. On day 5, LPS was added to transform the cells into mature DCs. On day 6, cells were lysed in RIPA buffer with protease inhibitors. Immunoprecipitation of MHC-II complexes were performed using biotinylated anti-MHC-II antibody coupled to streptavidin beads. The bound complex was eluted and filtered. The isolated MHC-II peptides were analyzed by a mass spectrometer. Peptide identifications were generated by an internal proteomics pipeline using search algorithms with no enzyme and a bovine/human database with test sequences appended to the database. A KNIME workflow was used to process the identification files from the samples. Peptides identified from the test articles were aligned against the parent sequence of the test molecule. The output was used to determine the percentage of donors displaying MHC-II peptides from regions of the test molecule. Polypeptides comprising SEQ ID NOs:54, 49, 50, 29, 41, 45, 1, 22, 25 were tested in the MAPPs assay. […] Depending on the donors, up to three major clusters were observed, each slightly shifted from the others, altogether spanning residues 1-33.
# [3] = target: rat CRHR2 (endogenous on A7r5 cells) (rat, UniProt P47866 20-411); assay: cell-based or functional assay
# [4] = target: T3, human corticotropin-releasing hormone …; assay: cell-based or functional assay
# [5] = target: T3, human corticotropin-releasing hormone …; assay: cell-based or functional assay; remark: listed apart in the source
# [6] = male, Sprague Dawley, rat, plasma, iv, 196 nmol/kg, single intravenous dose 196 nmol/kg, individual animal
# [7] = male, Sprague Dawley, rat, plasma, iv, 196 nmol/kg, single intravenous dose 196 nmol/kg, mean
# [8] = single intravenous dose 196 nmol/kg, male Sprague Dawley rats, individual animal
# [9] = single subcutaneous dose 196 nmol/kg, male Sprague Dawley rats, individual animal
# Sequence of rat CRHR2 (endogenous on A7r5 cells) (P47866 20-411): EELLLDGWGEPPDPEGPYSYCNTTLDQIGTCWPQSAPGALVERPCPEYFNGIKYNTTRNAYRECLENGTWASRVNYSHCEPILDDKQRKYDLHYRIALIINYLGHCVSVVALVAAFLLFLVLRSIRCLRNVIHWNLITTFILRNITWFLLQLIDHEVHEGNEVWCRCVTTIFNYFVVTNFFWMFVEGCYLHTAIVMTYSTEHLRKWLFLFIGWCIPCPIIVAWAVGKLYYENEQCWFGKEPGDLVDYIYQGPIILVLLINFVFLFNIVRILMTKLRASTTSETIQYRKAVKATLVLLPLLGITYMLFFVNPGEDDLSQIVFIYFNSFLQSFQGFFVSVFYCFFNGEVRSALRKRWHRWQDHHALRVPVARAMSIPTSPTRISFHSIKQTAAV
molecule,measurement,setting,value
"CC[C@H](C)[C@H](NC(C)=O)C(=O)N[C@H](C(=O)N[C@H](C(=O)N[C@@H](CO)C(=O)N[C@@](C)(CC(C)C)C(=O)N[C@@H](CC(=O)O)C(=O)N[C@@H](C(=O)N1CCC[C@H]1C(=O)N[C@H](C(=O)NC(C)(C)C(=O)N[C@@](C)(CC(C)C)C(=O)N[C@@H](CC(C)C)C(=O)N[C@@H](CCC(N)=O)C(=O)N[C@H](C(=O)N[C@@H](CCCCN)C(=O)N[C@@H](CC(C)C)C(=O)N[C@@H](CCC(=O)O)C(=O)N[C@@H](CCC(N)=O)C(=O)N[C@@H](CCC(=O)O)C(=O)N[C@@H](CCCNC(=N)N)C(=O)N[C@@H](C)C(=O)N[C@@H](CCC(=O)O)C(=O)N[C@@H](CCCCN)C(=O)N[C@@H](C)C(=O)N[C@@H](CCCNC(=N)N)C(=O)N[C@@H](CCC(N)=O)C(=O)N[C@@H](CCC(N)=O)C(=O)N[C@@H](C)C(=O)N[C@@H](CCCCNC(=O)COCCOCCNC(=O)COCCOCCNC(=O)CC[C@H](NC(=O)CCCCCCCCCCCCCCCCCCC(=O)O)C(=O)O)C(=O)N[C@@H](CCC(=O)O)C(=O)N[C@@H](CC(N)=O)C(=O)N[C@H](C(=O)N[C@@H](CCC(=O)O)C(=O)N[C@H](C(=O)N[C@@H](CC(C)C)C(=O)N[C@@H](C)C(=O)N[C@@H](CCC(N)=O)C(=O)N[C@H](C(N)=O)C(C)C)[C@@H](C)CC)[C@@H](C)O)[C@@H](C)CC)[C@@H](C)CC)C(C)C)[C@@H](C)O)C(C)C [SEQ ID NO: 42, Ac-IVTS αMeL D (D-Val) PI Aib αMeL LQIKLEQERAEKARQQAK((2-[2-(2-Amino-ethoxy)-ethoxy]-acetyl)2-γE-CO-(CH2)18-CO2H)ENTEILAQV-NH2] (Ac-IVTS[αMeL]D[dV]PI[Aib][αMeL]LQIKLEQERAEKARQQAK([AEEA-AEEA-γGlu-C20 diacid])ENTEILAQV-NH2)",EC50,human CRHR2,6.6 ± 0.8 pM
same,clearance,[1]; [6],2.4 mL/h/kg
same,half-life,[1]; [6],36.1 h
same,clearance,[1]; [7],2.43 mL/h/kg
same,half-life,[1]; [7],39.3 h
same,half-life,"[1]; male, Sprague Dawley, rat, plasma, sc, 196 nmol/kg, single subcutaneous dose 196 nmol/kg, individual animal",33.2 h
same,CL/F,"[1]; male, Sprague Dawley, rat, plasma, sc, 196 nmol/kg, single subcutaneous dose 196 nmol/kg, individual animal, read-out: CL/F (converted)",5.41 mL/h/kg
same,Tmax,"[1]; male, Sprague Dawley, rat, plasma, sc, 196 nmol/kg, single subcutaneous dose 196 nmol/kg, individual animal, read-out: Tmax",48 h
same,half-life,"[1]; male, Sprague Dawley, rat, plasma, sc, 196 nmol/kg, single subcutaneous dose 196 nmol/kg, mean",42.2 h
same,CL/F,"[1]; male, Sprague Dawley, rat, plasma, sc, 196 nmol/kg, single subcutaneous dose 196 nmol/kg, mean, read-out: CL/F (converted)",4.85 mL/h/kg
same,Tmax,"[1]; male, Sprague Dawley, rat, plasma, sc, 196 nmol/kg, single subcutaneous dose 196 nmol/kg, mean, read-out: Tmax",40 h
same,AUC0-inf,"[1]; rat, plasma, sc, single subcutaneous dose 196 nmol/kg, male Sprague Dawley rats, mean, read-out: AUC0-inf",44.3 µM·h
same,Cmax,"[1]; rat, plasma, sc, single subcutaneous dose 196 nmol/kg, male Sprague Dawley rats, mean, read-out: Cmax",473 nM
same,AUC0-inf,"[1]; rat, plasma, single intravenous dose 196 nmol/kg, male Sprague Dawley rats, mean, read-out: AUC0-inf",80.6 µM·h
same,C0,"[1]; rat, plasma, single intravenous dose 196 nmol/kg, male Sprague Dawley rats, mean, read-out: C0",2420 nM
same,AUC0-inf,[1]; [8],81.5 µM·h and 77.9 µM·h and 82.5 µM·h
same,C0,[1]; [8],2760 nM and 2250 nM and 2260 nM
same,CL,[1]; [8],2.51 mL/h/kg and 2.37 mL/h/kg
same,T1/2,[1]; [8],35.8 h and 46.0 h
same,AUC0-inf,[1]; [9],38.1 µM·h and 43.2 µM·h and 51.5 µM·h
same,CL/F,[1]; [9],4.80 mL/h/kg and 4.35 mL/h/kg
same,Cmax,[1]; [9],399 nM and 559 nM and 460 nM
same,T1/2,[1]; [9],39.1 h and 54.2 h
same,Tmax,[1]; [9],24 h
same,EC50,human CRHR1,2.3e+06 pM
"γGlu-GPSIVTS[αMeL]D[dV]PI[Aib][αMeL]LQIKLEQERAEKARQQAK([AEEA-AEEA-γGlu-C20 diacid])ENTEILAQV-NH2 [SEQ ID NO: 45, γE-GPSIVTS αMeL D (D-Val) PI Aib αMeL LQIKLEQERAEKARQQAK((2-[2-(2-Amino-ethoxy)-ethoxy]-acetyl)2-γE-CO-(CH2)18-CO2H)ENTEILAQV-NH2]",MAPPS Assay >10 donors with diverse MHC,[2]; donors displaying MHC-II peptides / donors tested,0/20
same,peptides displayed on MHC-II complexes,[2]; human dendritic cells from normal donors,no peptides displayed on MHC-II complexes
same,immunogenicity compared with SEQ ID NO:54,[2]; in the MAPPs assay and/or the T cell proliferation assay,substantial improvements in immunogenicity over a compound comprising SEQ ID NO:54
same,MAPPS Assay >10 donors with diverse MHC,[2]; percentage of donors displaying MHC-II peptides,0%
same,EC50,human CRHR2,9 ± 3.6 pM
same,EC50,human CRHR1,3.7e+06 pM
Ac-GSPSIVTS[αMeL]DVPT[Aib][αMeL]LQKLLEQERAEKARQQAK([γGlu-AEEA-εLys-C20 diacid])EAAEILAQV-NH2 [polypeptide comprising SEQ ID NO:2],A7r5 cAMP EC50,[3],0.544 nM
same,Y79 cAMP EC50,[4],2100 nM
same,hCRHR1 cAMP EC50,[5],> 10000 nM
Ac-GSPSIVTS[αMeL]DVPT[Aib][αMeL]LQKILEQERAEKARQQAK([γGlu-AEEA-εLys-C20 diacid])EAAEILAQV-NH2 [polypeptide comprising SEQ ID NO:1],A7r5 cAMP EC50,[3],0.157 nM
same,Y79 cAMP EC50,[4],1400 nM
same,hCRHR1 cAMP EC50,[5],> 10000 nM
IVLSLDVPIGLLQILLEQARARAAREQATTNARILARV-NH2 (ligand) [Human urocortin-2 (UCN2)],Y79 cAMP EC50,[4],> 10000 nM
same,hCRHR1 cAMP EC50,[5],> 10000 nM
[NMeI]VTSLDVPIG[αMeL]LQKLLEQERAEKARQQAKEAAEILAQV-NH2 (not fully specified (residue 29)) [polypeptide comprising SEQ ID NO:50],A7r5 cAMP EC50,[3],0.967 nM
same,Y79 cAMP EC50,[4],> 10000 nM
same,hCRHR1 cAMP EC50,[5],> 10000 nM
[NMeI]VLSLDVPIGLLQILLEQEKQEKEKQQAKTNAQILAQV-NH2 (not fully specified (residue 29)) [Reference compound SEQ ID NO:54],A7r5 cAMP EC50,[3],0.471 nM
same,Y79 cAMP EC50,[4],6000 nM
same,hCRHR1 cAMP EC50,[5],> 10000 nM
[pGlu]GSPSGIVTS[αMeL]DVPT[Aib][αMeL]LQKILEQERAEKARQQAK([γGlu-AEEA-εLys-C20 diacid])EAAEILAQV-NH2 [polypeptide comprising SEQ ID NO:22],A7r5 cAMP EC50,[3],0.314 nM
same,Y79 cAMP EC50,[4],2400 nM
same,hCRHR1 cAMP EC50,[5],> 10000 nM
